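Five compound concentrations were applied to cells in 96-well plates for 48 hours; endpoints were derived by simple linear interpolation of the resulting dose-response curve. TGI denotes the concentration required for complete inhibition of growth.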
Key:
Assay in all cases: NCI tumour cell line growth inhibition, 48 h
[1] = test system: DLD-1 colon
[2] = test system: DMS 114 small cell lung
[3] = test system: DMS 273 small cell lung
[4] = test system: HOP-18 NSCLC
[5] = test system: KM20L2 colon
[6] = test system: M19-MEL melanoma
[7] = test system: P388 leukemia
[8] = test system: P388/ADR leukemia
[9] = test system: SN12K1 renal
[10] = test system: SNB-78 CNS
[11] = test system: XF 498 CNS
[12] = test system: LXFL 529 NSCLC
[13] = test system: RXF-631 renal

SMILES | TGI [1] [µM] | TGI [2] [µM] | TGI [3] [µM] | TGI [4] [µM] | TGI [5] [µM] | TGI [6] [µM] | TGI [7] [µM] | TGI [8] [µM] | TGI [9] [µM] | TGI [10] [µM] | TGI [11] [µM] | TGI [12] [µM] | TGI [13] [µM]
CC(C)CCN=c1cc2n(-c3ccc(Cl)cc3)c3ccccc3nc-2cc1Nc1ccc(Cl)cc1 | 68.4 | 7.63 | 56.4 | 56.6 | 19.7 | 20.2 | 11.7 | 10.2 | 23.7 | > 100 | 20.6 |  | 
CCOCNC(=O)N(COCC)COCC | > 100 | > 100 |  |  | > 100 | > 100 |  |  |  | > 100 | > 100 | > 100 | > 100
COc1ccc2c(c1)CCCc1cn[nH]c1-2 | > 100 | > 100 | > 100 | > 100 | > 100 | > 100 | > 100 | > 100 | > 100 | > 100 | > 100 |  | 
CC[C@]12C=CCN3CC[C@@]4(c5ccc(OC)cc5N(C)[C@H]4[C@@](O)(C(=O)OC)[C@@H]1OC(C)=O)[C@@H]32 | > 200 | > 200 | > 200 | > 200 | > 164 | > 63.2 |  | > 200 | > 200 | > 200 | > 200 |  | 
Oc1ccc2ccccc2c1N=Nc1ccc(F)cc1 |  | > 100 | > 100 | > 100 | > 100 | > 100 |  |  |  |  |  | > 100 | 

— PubChem BioAssay (NCI)
